From patent US8765729B2, “Cancer therapy” (Aeolus Sciences, Inc., priority 2001, dated 2014)

What was measured:
[1] = tested on: oral mucositis induced by acute radiation; experiment: Oral mucositis induced by acute radiation in hamsters; type: in vivo
Description: Forty hamsters were given an acute radiation dose directed to their oral mucosa. Test materials will be applied by injection, or topically (three times per day) beginning the day before radiation and continuing until day 20. Mucositis were evaluated on alternate days beginning on day 6 (day of radiation=day 0) and continuing until the conclusion of the experiment on day 28.
Forty (40) hamsters were used. The hamsters were randomized into five (5) groups of eight (8) animals each. Each group was assigned a different treatment of 0.2 ml tid as follows:
Parameters measured included the mucositis score, weight change and survival. For the evaluation of mucositis, the animals were anesthetized with inhalation anesthetics ([…] or Halothane), and the left pouch everted. Mucositis was scored both clinically during the laboratory portion of the study and in a blinded manner (at the conclusion of the study). Clinical scoring was performed by visual comparison to a validated photographic scale, ranging from 0 for normal, to 5 for severe ulceration.
• 0 Pouch completely healthy. No erythema or vasodilation • 1 Light to […] erythema and vasodilation. No erosion of mucosa • 2 Severe erythema and vasodilation. Erosion of superficial aspects of mucosa leaving denuded areas. Decreased stippling of mucosa. • 3 Formation of off-white ulcers in one or more places. Ulcers may have a yellow/gray due to pseudomembrane. Cumulative size of ulcers should equal about ¼ of the pouch. Severe erythema and vasodilation. • 4 Cumulative seize of ulcers should equal about ½ of the pouch. Loss of pliability. Severe erythema and vasodilation. • 5 Virtually all of pouch is ulcerated. Loss of pliability (pouch can only partially be extracted from mouth) A score of 1-2 is considered to represent a mild stage of the disease, whereas a score 3-5 is considered to indicate moderate to severe mucositis. Results
Chi-square analysis of the total number of days the animals in each group spent with a score of three or more. This statistic is a measure of severity of ulceration, a clinically important outcome. Significant efficacy is indicated in red.

[2] = SOD activity (cytochrome C method); type: biochemical
Description: FIGS. 1A-1H show the structures of certain generic and specific definitions of compounds suitable for use in the present invention. With reference to FIG. 1C, mimetics of the invention can be of Formula I or Formula II, or dimeric forms thereof, an example of a dimeric form being shown in FIG. 1D. With reference to FIG. 1H, the SOD activities of certain of the depicted compounds are shown in Table 1 (as measured by the cytochrome C method): […]

[3] = tested on: R3230 mammary adenocarcinoma cells in Z-chambers; experiment: Tumor development in Z-chambers; type: in vivo, Fisher-344 rats; details: 6 mg/kg i.p. 24 hours before implantation of 2.5 mil./ml cells
Description: FIG. 4. Animals were pretreated with different SOD mimetics (6 mg/kg i.p.) 24 hours before implantation of 2.5 mil./ml R3230 mammary adenocarcinoma cells in Z-chambers.
These chambers are constructed from customized plexi-glass rings with internal diameter of 10 mm and have a pore on the side. The two open surfaces are covered by nylon mesh (pore size 180 microns, Millipore, Mass.) and glued to the rings. Fibrinogen (Human fibrinogen, plasminogen depleted, CalBiochem) is prepared in DMEM, Gibco BRL) and a concentration of 4-5 mg/ml is utilized for the studies. Although the Fischer rats used in the study are immune competent, this purified batch of fibrinogen has been recognized to be very well conserved across species lines. It has already been shown that early angiogenic response to human fibrinogen is very similar to rat fibrinogen in fibrin gel chambers. The two different types of fibrinogen have also been tested in the Z-Chambers and no difference was found in angiogenic and healing response. Human fibrinogen was used.
The Fibrin Z-Chambers have fibrinogen solution poured inside the chamber through the pore and followed by 2 units of thrombin. […]
The Z-Chambers were harvested on day 1 or 12 post surgery. […] The depth of either the tumor tissue (tumor growth) or granulation tissue (wound healing) was measured with calipers on the 4×6 inch print. […]

[4] = high dose IP (1 mg/ml tid), total days 192
[5] = high dose topical (1 mg/ml tid), total days 192
[6] = low dose IP (0.25 mg/ml tid), total days 192
[7] = low dose topical (0.25 mg/ml tid), total days 182

**Q.** With `CCn1cc[n+](CC)c1-c1c2nc(c(-c3n(CC)cc[n+]3CC)c3ccc([nH]3)c(-c3n(CC)cc[n+]3CC)c3nc(c(-c4n(CC)cc[n+]4CC)c4ccc1[nH]4)C=C3)C=C2.[Mn+3]` [Compound 10150, manganese(III)tetrakis(N-diethylimidazolium-2,5-yl)porphyrin] as the compound, how does the “Percent Days > 3” value ([1]; INC-01, 0.25 mg/ml IP, control 45.8, P 0.001) read?
**A.** 18.8%

**Q.** And the “Percent Days > 3” value ([1]; INC-01, 0.25 mg/ml Topical, control 45.8, P 0.953)?
**A.** 45.6%

**Q.** What about the “Percent Days > 3” value ([1]; INC-01, 1 mg/ml IP, control 45.8, P 0.005) of the same compound?
**A.** 31.3%

**Q.** What about the “Percent Days > 3” value ([1]; INC-01, 1 mg/ml Topical, control 45.8, P 0.148) of the same compound?
**A.** 38%

**Q.** And the “Percent Days > 3” value ([1]; INC-02, 0.25 mg/ml IP, control 43.3, P 0.004)?
**A.** 28.6%

**Q.** What about the “Percent Days > 3” value ([1]; INC-02, 1.5 mg/ml IP, control 43.3, P 0.002) of the same compound?
**A.** 27.6%

**Q.** What about the “Percent Days > 3” value ([1]; INC-02, 1.5 mg/ml Topical, control 43.3, P 0.298) of the same compound?
**A.** 37.5%

**Q.** What about the “Percent Days > 3” value ([1]; INC-02, 5 mg/ml Topical, control 43.3, P 0.002) of the same compound?
**A.** 27.6%

**Q.** What about the “Percent Days > 3” value ([1]; INC-03, 1 mg/ml IP, control 33.3, P 0.113) of the same compound?
**A.** 38.1%

**Q.** What about the “Percent Days > 3” value ([1]; INC-04, 0.25 mg/ml IP, control 43.9, P 0.485) of the same compound?
**A.** 47.3%

**Q.** What about the “Percent Days > 3” value ([1]; INC-05, 0.25 mg/ml IP, control 68.8, P 0.001) of the same compound?
**A.** 42.1%

**Q.** And the “Percent Days > 3” value ([1]; INC-05, 1.5 mg/ml IP, control 68.8, P 0.001)?
**A.** 33.3%

**Q.** What about the “reduction in the percent of days with Mucositis Scores ≧3” value ([1]; IP, 0.2 ml of 0.25 mg/ml TID, 1.5 mg/kg/day) of the same compound?
**A.** 59%

**Q.** What about the “Days < 3” value [1, 4] of the same compound?
**A.** 132

**Q.** What about the “Days >= 3” value [1, 4] of the same compound?
**A.** 60

**Q.** And the “% Days >= 3” value ([1]; high dose IP, control 45.8, P 0.005)?
**A.** 31.3%

**Q.** And the “Days < 3” value [1, 5]?
**A.** 119

**Q.** And the “Days >= 3” value [1, 5]?
**A.** 73

**Q.** And the “% Days >= 3” value ([1]; high dose topical, control 45.8, P 0.148)?
**A.** 38.0%

**Q.** What about the mucositis severity ([1]; high dose topical, not statistically significant) of the same compound?
**A.** tended to reduce mucositis severity

**Q.** What about the “Days < 3” value [1, 6] of the same compound?
**A.** 156

**Q.** And the “Days >= 3” value [1, 6]?
**A.** 36

**Q.** And the “% Days >= 3” value ([1]; low dose IP, control 45.8, P <0.001)?
**A.** 18.8%

**Q.** And the “Days < 3” value [1, 7]?
**A.** 99

**Q.** What about the “Days >= 3” value [1, 7] of the same compound?
**A.** 83

**Q.** And the “% Days >= 3” value ([1]; low dose topical, control 45.8, P 0.953)?
**A.** 45.6%

**Q.** What about the “severity of mucositis associated with radiation therapy” value ([1]; most evident with IP administration) of the same compound?
**A.** markedly reduces the severity of mucositis

**Q.** And the “incidence of severe mucositis” value ([1]; topical dosing, both concentrations)?
**A.** not in either group treated by topical dosing

**Q.** What about the SOD activity [2] of the same compound?
**A.** 14,789 U/mg

**Q.** What about the tumor development [3] of the same compound?
**A.** Significant (p<0.01) inhibition of tumor development
